The source of these data is paper PMC7504092, “Synthesis and Antiplasmodial Evaluation of 4-Carboxamido- and 4-Alkoxy-2-Trichloromethyl Quinazolines” (Molecules, 2020).

By EC50 is commonly meant the concentration at which the effect is half-maximal. One may read the CC50 as the concentration giving 50% cytotoxicity. Higher therefore signals better tolerance by the cells. For orientation: melting point means the temperature of the solid-liquid transition. The IC50 is the concentration needed to halve the response being measured.

Data set [1] has as its system K1 P. falciparum strain. Briefly: In vitro antiplasmodial evaluation (SYBR Green I fluorescence-based method). The following applies: for SI (selectivity index = CC50/EC50): CC50 HepG2 / EC50 PfK1; for EC50: read-out: PfK1 EC50; for activity against P. falciparum (in words): K1 strain; for IC50: K1, Figures 2 and 3, read-out: IC50 P. falci. K1. It counts as cell-based. As for the experimental part: It was maintained in continuous culture as described previously by Trager and Jensen. […] Parasitemia was maintained daily at between 1 and 3%. The P. falciparum drug susceptibility test was carried out by comparing quantities of DNA in treated and control cultures of parasite in human erythrocytes according to an SYBR Green I fluorescence-based method using a 96-well fluorescence plate reader. […] Duplicate assays were performed for each sample. After incubation, plates were frozen at -20 °C for 24 h. […] Fifteen μL of each sample were transferred to 96-well flat bottom non-sterile black plates (Greiner Bio-one) already containing 15 μL of the SYBR Green I lysis buffer (2X SYBR Green I, 20 mM Tris base pH 7.5, 20 mM EDTA, 0.008% w/v saponin, 0.08% w/v Triton X-100).

A short description of data set [2]: In vitro cytotoxicity evaluation (MTT). The format is cell-based. The settings on record: human. How it is done: Triplicate assays were performed for each sample. Each plate-well was then microscope-examined for possible precipitate formation before the medium was aspirated from the wells. 100 μL of MTT (3-(4,5-dimethyl-2-thiazolyl)-2,5-diphenyl-2H-tetrazolium bromide) solution (0.5 mg/mL in medium without FBS) were then added to each well. […] After this time, the MTT solution was removed and DMSO (100 μL) was added to dissolve the resulting blue formazan crystals. Plates were shaken vigorously (700 rpm) for 10 min. The absorbance was measured at 570 nm with 630 nm as reference wavelength using a BIO-TEK ELx808 Absorbance Microplate Reader (LabX, Midland, ON, Canada). DMSO was used as blank and doxorubicin (purchased from Sigma Aldrich) as positive control. Cell viability was calculated as percentage of control (cells incubated without compound). […] CC50 values represent the mean value calculated from three independent experiments.

The mark [3] stands for this setting: Plasmodium falciparum, K1, 72 h, multi-resistant K1 P. falciparum strain, 72 h incubation.
Setting [4] is: multi-resistant K1 P. falciparum strain, 72 h incubation.

Read-outs that look alike come from different tables or passages of the source. Some results are limits rather than exact numbers.

For the compound `O=C(Nc1nc(C(Cl)(Cl)Cl)nc2ccccc12)c1cccnc1` [Molecule 18, N-(2-Trichloromethylquinazolin-4-yl)nicotinamide], the melting point is 208 °C. In addition, in data set [1], the “SI (selectivity index = CC50/EC50)” value was 18.7. The EC50 in data set [1] (setting [3]) came to 3.9 µM. Also, the CC50 at 72 h in data set [2] was 72.9 µM.

In the case of `COCCOc1nc(C(Cl)(Cl)Cl)nc2ccccc12` [Molecule 35, 4-(2-Methoxyethoxy)-2-Trichloromethylquinazoline], the melting point is 63 °C. For the same compound, the “SI (selectivity index = CC50/EC50)” value in data set [1] came to 23.1. In addition, the half-maximal effective concentration (EC50) in data set [1] (setting [3]) came to 2.3 µM. This compound also yielded a CC50 at 72 h in data set [2] of 53.2 µM.

As to `O=C(Nc1nc(C(Cl)(Cl)Cl)nc2ccccc12)c1ccc(Br)cc1` [Molecule 14, 4-Bromo-N-(2-Trichloromethylquinazolin-4-yl)benzamide], the EC50 in data set [1] (setting [3]) is 1.3 µM. Also, the CC50 at 72 h in data set [2] came out at 19.5 µM.

`ClCCOc1nc(C(Cl)(Cl)Cl)nc2ccccc12` [Molecule 36, 4-(2-Chloroethoxy)-2-Trichloromethylquinazoline] registered a melting point of 54 °C. Further, in data set [1], the “SI (selectivity index = CC50/EC50)” value is reported as above 28. The half-maximal effective concentration (EC50) in data set [1] (setting [3]) was found to be 2.2 µM. Further, the CC50 at 72 h in data set [2] is above 62.5 µM.

Compound `FCCOc1nc(C(Cl)(Cl)Cl)nc2ccccc12` [Molecule 39, 4-(2-Fluoroethoxy)-2-Trichloromethylquinazoline] registered a melting point of 73 °C. Moreover, the “SI (selectivity index = CC50/EC50)” value in data set [1] came out at 3.7. Moreover, the EC50 in data set [1] (setting [3]) is 8 µM. The compound further displayed a CC50 at 72 h in data set [2] of 29.5 µM.

As to `COc1cccc2c1C(=O)c1c(O)c3c(c(O)c1C2=O)C[C@@](O)(C(=O)CO)C[C@@H]3O[C@H]1C[C@H](N)[C@H](O)[C@H](C)O1` [Doxorubicin, reference compound], the CC50 at 72 h in data set [2] was 0.2 µM.

On to `CCCOc1nc(C(Cl)(Cl)Cl)nc2ccccc12` [Molecule 28, 4-Propoxy-2-Trichloromethylquinazoline], for which the melting point was 39 °C. Also, in data set [1], the “SI (selectivity index = CC50/EC50)” value was determined as 15. The 50% effective concentration (EC50) in data set [1] (setting [3]) was 3.5 µM. For the same compound, half-maximal cytotoxicity in data set [2] (CC50 at 72 h) was put at 54.8 µM.

Take `O=C(c1ccc(Cl)cc1)N(C(=O)c1ccc(Cl)cc1)c1nc(C(Cl)(Cl)Cl)nc2ccccc12` [Molecule 3, 4-Chloro-N-(4-Chlorobenzoyl)-N-(2-Trichloromethylquinazolin-4-yl)benzamide]: the melting point was 218.2 °C. For the same compound, the “SI (selectivity index = CC50/EC50)” value in data set [1] came out at 13.7. In data set [1] (setting [3]), the concentration for a half-maximal effect (EC50) came to 1.46 µM. Besides, the cytotoxic concentration (CC50) at 72 h in data set [2] was 20 µM.

Take `O=C(Nc1nc(C(Cl)(Cl)Cl)nc2ccccc12)c1ccncc1` [Molecule 19, N-(2-Trichloromethylquinazolin-4-yl)isonicotinamide]: the melting point was determined as 151 °C. Also, in data set [1], the “SI (selectivity index = CC50/EC50)” value was found to be 12.7. Also, in data set [1] (setting [3]), the EC50 worked out at 1.8 µM. In data set [2], this compound had a half-maximal cytotoxic concentration (CC50) at 72 h of 22.8 µM.

Compound `C#CCOc1nc(C(Cl)(Cl)Cl)nc2ccccc12` [Molecule 31, 4-(Prop-2-ynyloxy)-2-Trichloromethylquinazoline] returned a melting point of 62 °C. For the same compound, the “SI (selectivity index = CC50/EC50)” value in data set [1] is on record as 14.6. Moreover, the EC50 in data set [1] (setting [3]) stood at 3.4 µM. Moreover, in data set [2], the CC50 at 72 h amounted to 49.6 µM.

`C#CC(C)Oc1nc(C(Cl)(Cl)Cl)nc2ccccc12` (centres unmarked) [Molecule 32, 4-(But-3-yn-2-yloxy)-2-Trichloromethylquinazoline] yielded a melting point of 92 °C. For the same compound, the “SI (selectivity index = CC50/EC50)” value in data set [1] is below 4.5. The EC50 in data set [1] (setting [3]) is above 10 µM. Further, in data set [2], half-maximal cytotoxicity (CC50 at 72 h) was put at 45 µM.

Compound `CCN(CC)CCOc1nc(C)nc2ccccc12` [Molecule 47, N,N-Diethyl-2-[(2-Methylquinazolin-4-yl)oxy]ethanamine] gave a melting point of 230 °C. Moreover, in data set [1], the “activity against P. falciparum (in words)” value was “inactive”. The IC50 in data set [1] (Plasmodium falciparum) is above 50 µM.

With `O=C(Nc1nc(C(Cl)(Cl)Cl)nc2ccccc12)c1ccc(F)cc1` [Molecule 9, 4-Fluoro-N-(2-Trichloromethylquinazolin-4-yl)benzamide], the melting point worked out at 166 °C. Also, the EC50 in data set [1] (setting [3]) was at most 2 µM. In addition, the EC50 in data set [1] (setting [4]) came to 1.34 µM. This compound also registered a CC50 at 72 h in data set [2] of 29.4 µM.

`C[C@H]1c2cccc(O)c2C(=O)C2=C(O)[C@]3(O)C(=O)C(C(N)=O)=C(O)[C@@H](N(C)C)[C@@H]3[C@@H](O)[C@@H]21` [Doxycycline, reference compound]: the EC50 in data set [1] (setting [3]) stood at 6 µM. The compound also showed a CC50 at 72 h in data set [2] of 20 µM.

With `CCN(CC)CCCC(C)Nc1ccnc2cc(Cl)ccc12` (centres unmarked) [Chloroquine, reference compound], in data set [1] (Plasmodium falciparum, K1, 72 h), the EC50 amounted to 0.8 µM.

The compound `O=C(Nc1nc(C(Cl)(Cl)Cl)nc2ccccc12)c1ccc([N+](=O)[O-])cc1` [Molecule 6, 4-Nitro-N-(2-Trichloromethylquinazolin-4-yl)benzamide] yielded a melting point of 214 °C. The “SI (selectivity index = CC50/EC50)” value in data set [1] amounted to 5.3. In data set [1] (setting [3]), the EC50 was 4.18 µM. The compound also returned a CC50 at 72 h in data set [2] of 22.1 µM.

On to `O=C(Nc1nc(C(Cl)(Cl)Cl)nc2ccccc12)c1cccc(Cl)c1` [Molecule 12, 3-Chloro-N-(2-Trichloromethylquinazolin-4-yl)benzamide], for which the EC50 in data set [1] (setting [3]) turned out to be 1.54 µM. The compound also showed a CC50 at 72 h in data set [2] of 16.4 µM.

Turning to `COc1ccc(C(=O)Nc2nc(C(Cl)(Cl)Cl)nc3ccccc23)cc1` [Molecule 16, 4-Methoxy-N-(2-Trichloromethylquinazolin-4-yl)benzamide], in data set [1] (Plasmodium falciparum), the IC50 came out at 0.94 µM. In data set [2], the CC50 at 72 h was 27.7 µM.

As to `CCN(CC)CCOc1nc(C(F)(F)F)nc2ccccc12` [Molecule 48, N,N-Diethyl-2-[(2-Trifluoromethylquinazolin-4-yl)oxy]ethan-1-Amine], in data set [1], the “activity against P. falciparum (in words)” value is “inactive”. Besides, the half-maximal inhibitory concentration (IC50) in data set [1] (Plasmodium falciparum) is above 50 µM.

The compound `O=C(Nc1nc(C(Cl)(Cl)Cl)nc2ccccc12)c1ccc(Cl)cc1` [Molecule 2, 4-Chloro-N-(2-Trichloromethylquinazolin-4-yl)benzamide] yielded a melting point of 199 °C. Also, the CC50 at 72 h in data set [2] is 21 µM.

Turning to `ClC(Cl)(Cl)c1nc(OCCN2CCCCC2)c2ccccc2n1` [Molecule 43, 4-[2-(Piperidin-1-yl)ethoxy]-2-Trichloromethylquinazoline], the “SI (selectivity index = CC50/EC50)” value in data set [1] was determined as 16.5. In addition, the EC50 in data set [1] (setting [3]) was 1.4 µM. In addition, the CC50 at 72 h in data set [2] worked out at 23.4 µM.

For `COc1ccc(C(=O)Nc2nc(C)nc3ccccc23)cc1` [Molecule 45, 4-methoxy-N-(2-Methylquinazolin-4-yl)benzamide], the “activity against P. falciparum (in words)” value in data set [1] was “inactive”. The IC50 in data set [1] (Plasmodium falciparum) is above 50 µM.

`CCN(CC)CCOc1ncnc2ccccc12` [Molecule 49, N,N-Diethyl-2-(Quinazolin-4-yloxy)ethanamine]: the “activity against P. falciparum (in words)” value in data set [1] is “inactive”. In addition, the IC50 in data set [1] (Plasmodium falciparum) is above 50 µM.

For `O=C(Nc1nc(C(Cl)(Cl)Cl)nc2ccccc12)c1ccccc1Cl` [Molecule 13, 2-Chloro-N-(2-Trichloromethylquinazolin-4-yl)benzamide], the EC50 in data set [1] (setting [3]) turned out to be 9.04 µM. The compound also showed a CC50 at 72 h in data set [2] of 27.3 µM.

For the compound `ClC(Cl)(Cl)c1nc(OCCN2CCCC2)c2ccccc2n1` [Molecule 44, 4-[2-(Pyrrolidin-1-yl)ethoxy]-2-Trichloromethylquinazoline], the values for the concentration for a half-maximal effect (EC50) in data set [1] (setting [3]) and in data set [1] (setting [4]) were at most 2 µM and 1.3 µM, respectively. The CC50 at 72 h in data set [2] turned out to be 43.7 µM.

Take `ClCCCCOc1nc(C(Cl)(Cl)Cl)nc2ccccc12` [Molecule 38, 4-(4-Chlorobutoxy)-2-Trichloromethylquinazoline]: in data set [1], the “SI (selectivity index = CC50/EC50)” value was 11.7. Moreover, in data set [1] (setting [3]), the half-maximal effective concentration (EC50) stood at 4.3 µM. The CC50 at 72 h in data set [2] came to 50.5 µM.

For `N#Cc1ccc(C(=O)Nc2nc(C(Cl)(Cl)Cl)nc3ccccc23)cc1` [Molecule 15, 4-Cyano-N-(2-Trichloromethylquinazolin-4-yl)benzamide], in data set [1] (setting [3]), the EC50 was 3.5 µM. This compound registered a CC50 at 72 h in data set [2] of 31.4 µM.

As to `O=C(Nc1nc(C(Cl)(Cl)Cl)nc2ccccc12)c1cccc([N+](=O)[O-])c1` [Molecule 7, 3-Nitro-N-(2-Trichloromethylquinazolin-4-yl)benzamide], in data set [1] (setting [3]), the EC50 was determined as 3.37 µM. For the same compound, in data set [2], the CC50 at 72 h stood at 24.8 µM.

On to `CCCCOc1nc(C(Cl)(Cl)Cl)nc2ccccc12` [Molecule 29, 4-Butoxy-2-Trichloromethylquinazoline], for which the “SI (selectivity index = CC50/EC50)” value in data set [1] is on record as 14.2. The EC50 in data set [1] (setting [3]) turned out to be 5.8 µM. Moreover, the CC50 at 72 h in data set [2] came to 82.4 µM.

Turning to `COc1ccc(C(=O)Nc2nc(C(F)(F)F)nc3ccccc23)cc1` [Molecule 46, 4-methoxy-N-(2-Trifluoromethylquinazolin-4-yl)benzamide], the melting point turned out to be 190 °C. Also, the “activity against P. falciparum (in words)” value in data set [1] is “inactive”. In addition, the IC50 in data set [1] (Plasmodium falciparum) was above 50 µM.
